Measurements as given in US9650415B2, “Uric acid-lowering agent” (Suntory Holdings Limited, priority 2014, dated 2017).

Legend:
[1] = target: xanthine oxidase (XO); assay: in vitro xanthine oxidase (XO) inhibiting action; format: biochemical; details: 4 U/L XO in PBS pH 7.5, xanthine substrate, absorbance at 295 nm after 30 minutes; mean±standard error
Description: The in vitro xanthine oxidase (XO) inhibiting action was studied on 210 kinds of cyclic dipeptides, linear dipeptides Tyr-Gly and Gly-Tyr, and an amino acid Tyr. […] Thereafter, 20 μL of a 250 μM xanthine solution previously dissolved in the PBS was added thereto, and the absorbance after 30 minutes was measured using a spectrophotometer (Synegy HT, manufactured by Bio Tek). The XO inhibition rate (%) at each concentration was calculated by the following calculation formula, to obtain activities of inhibiting XO (IC50 values). […] [formula] • wherein A: the absorbance of an enzyme-added, sample-non-added group at 295 nm; • B: the absorbance of an enzyme-non-added, sample-non-added group at 295 nm; • C: the absorbance of an enzyme-added, sample-added group at 295 nm; and • D: the absorbance of an enzyme-non-added, sample-added group at 295 nm.

[2] = test system: hyperuricemic mice; assay: action of lowering serum uric acid levels for hyperuricemic mice (potassium oxonate model); format: in vivo, BALBc mice; details: FIG. 2
Description: As to the animals used, male 7-week old BALBc mice were purchased from CLEA Japan, Inc., and subjected to an experiment after a one-week period of conditioning. The animals were bred in a breeding room with air-conditioning facilities (temperature: 23.5°±1.0° C., humidity: 55±10 RH %, the number of ventilation: 12 to 15 times/hour, illuminated: from 7:00 to 19:00 each day). During the period of conditioning, the mice were allowed to take a commercially available feed (CE-2, manufactured by CLEA Japan, Inc.) and distilled water ad libitum.
Oxonic acid is a substance that raises a blood uric acid level by inhibiting a urikase, a metabolic enzyme for uric acid. In view of the above, potassium oxonate (PO) was administered, thereby generating hyperuricemic model animals (see, Planta Med 2009; 75:302-306). […] In all the groups that include PO administration, PO previously suspended in a 0.5% aqueous CMC-Na solution was administered at a concentration of 250 mg/kg, and Normal Group was administered with a 0.5% aqueous CMC-Na solution, each being administered intraperitoneally. […] After 2 hours from the administration with PO, the blood was collected from the abdominal vena cava under anesthesia. After blood removal, the liver was harvested. The collected blood was allowed to stand at room temperature for 45 minutes, and centrifuged at 8,000 rpm for 10 minutes to recover sera. Here, the sera and the liver were preserved at −80° C. until the measurements were carried out.
The serum uric acid level was measured using 7180 Clinical Analyzer (manufactured by Hitachi Technologies).
The actions of lowering serum uric acid levels of soybean peptide heat-treated products were studied using hyperuricemic model animals, in the same manner as in Test Example 2. […] For each of the above-mentioned groups, the administration and the blood collection were carried out in the same manner as in Test Example 2 to measure a serum uric acid level. Here, the mixture of the 8 kinds of cyclic dipeptides prepared by using synthesized products of Cyclo(Ser-Tyr), Cyclo(Tyr-Gly), Cyclo(Tyr-Tyr), Cyclo(Phe-Tyr), Cyclo(Leu-Tyr), Cyclo(Val-Tyr), Cyclo(Ile-Tyr), and Cyclo(Asn-Tyr), in amounts to be contained in the soybean peptide heat-treated product, was used.
The actions of lowering serum uric acid levels of soybean peptide heat-treated products according to dose were studied using hyperuricemic model animals, in the same manner as in Test Example 3. […] For each of the above-mentioned groups, the administration and the blood collection were carried out in the same manner as in Test Example 2 to measure a serum uric acid level.

SMILES	IC50 [1]	also measured
NC(=O)CC1NC(=O)C(Cc2ccc(O)cc2)NC1=O (centres unmarked) [Cyclo(Asn-Tyr), cycloasparaginyltyrosine]	113 ± 11.4 µM	
Oc1ncnc2[nH]ncc12 [Allopurinol, reference compound]		serum uric acid level, effect versus PO Group ([2]; 1 mg/kg oral): significant difference
O=C(O)CC1NC(=O)C(Cc2ccc(O)cc2)NC1=O (centres unmarked) [Cyclo(Asp-Tyr), cycloaspartyltyrosine]	172 ± 13.5 µM	
O=C1NC(Cc2ccc(O)cc2)C(=O)NC1Cc1ccccc1 (centres unmarked) [Cyclo(Phe-Tyr), cyclophenylalanyltyrosine]	22.2 ± 0.8 µM	
O=C1CNC(=O)C(Cc2ccc(O)cc2)N1 (centres unmarked) [Cyclo(Tyr-Gly), cyclotyrosylglycine]		serum uric acid level, effect versus PO Group ([2]; 30 mg/kg oral): significant difference; serum uric acid level, effect versus PO Group ([2]; 100 mg/kg oral): significant difference; action of lowering serum uric acid level ([2]; Cyclo(Tyr-Gly) 10, 30, 100 mg/kg oral, PO 250 mg/kg i.p.): has an action of lowering a uric acid level in a dose-dependent manner
O=C1NC(Cc2ccc(O)cc2)C(=O)NC1Cc1ccc(O)cc1 (centres unmarked) [Cyclo(Tyr-Tyr), cyclotyrosyltyrosine]	29.5 ± 2.9 µM	
